Assay results reported in patent US12012373B2, “Cannabinoid derivatives” (CANOPY GROWTH CORPORATION, priority 2019, dated 2024).

Columns and labels:
human CB2 receptor = target: T1, human CB2 receptor (Homo sapiens, UniProt P34972); assay: CB2 radioligand competitive binding assay ([3H]CP 55,940 displacement); conditions: for IC50: [3H]CP 55,940 displacement, CHO-K1 membranes expressing human CB2 receptor; for Selectivity CB2: fold difference in binding between CB1 and CB2, shown in the column of the receptor with higher affinity, 1.00 in both = about same affinity
T1 construct: membranes prepared in house
Description: Compounds of the present disclosure were tested for CB1 receptor binding affinity and for CB2 receptor binding affinity. As used herein, “binding affinity” is represented by the IC50 value, which was experimentally determined as described herein. The lower the IC50 value the higher the binding affinity. A compound of the present disclosure may be said to have “binding selectivity” If it has a higher binding affinity for one receptor compared to the other.
The membranes were prepared from CHO-K1 (Chinese hamster ovary) cells stably transfected with the human CB2 receptor (Cat. #ES-111-C; Perkin Elmer, Boston, MA). The cells were grown adherently and maintained in Ham's F12 medium containing 10% fetal bovine serum (FBS), penicillin, streptomycin and geneticin (G418) at 37° C. in a humid atmosphere of 5% CO2 following the manufacturer's Instructions.
For membrane preparation the cells were washed with PBS and scraped off the plates in cold homogenization buffer (25 mM HEPES (pH 7.4), 2 mM EDTA) containing protease inhibitor cocktail (Sigma Cat. #P8340). The cell suspension was homogenized with a Pro-PK-01200D Polytron Homogenizer (Pro Scientific) and then centrifuged for 30 min at 120,000×g. The supernatant was discarded and the pellet was re-suspended in the homogenization buffer and stored at −80° C. until the time of use.
In this experiment, 3H radiolabeled CP 55,940, i.e. [3H]CP 55,940 (Perkin Elmer, Boston, MA), was used as a radioligand for the CB2 receptor to determine the binding affinity of compounds for the CB2 receptor (Scheme 8; above).
The competition binding experiments (single dose and dose-response) were performed by incubating 0.6 nM of [3H]CP55,940 (specific activity 101 Ci/mmol, Perkin Elmer) and different concentrations of compounds disclosed herein with membranes prepared as above from CHO-K1 cells expressing human CB2 receptor (1 μg of protein/well), 50 mM Tris-HCl (pH 7.4), 5 mM MgCl2, 1 mM CaCl2, and 2 mg/mL BSA.
For the single dose experiments, the compound stocks (usually 10 mM in DMSO) were diluted to working stocks in the binding buffer to give the final compound concentrations of 10 μM and 1 μM. For the dose-response experiments the test compounds were sequentially diluted to provide the desired concentration range for the IC50 determination. In each case the compounds were pre-incubated with the membrane for 20 min, before adding the radioligand.
After incubation with the radioligand for 60 min at 37° C., the incubation was terminated by rapid filtration of assay mixture through MultiScreen®HTS^+ 96-well filter plates (Millipore, Cat. #MSFCNXB), pre-soaked for 60 min with 50 mM Tris-HCl (pH 7.4) containing 0.33% polyethylenimine (PEI). The nonspecific binding (NSB) was determined in the presence of 10 μM unlabeled CP55,940. After drying the filter plate at 50° C. for at least 60 min, the filter-bound radioactivity was determined by scintillation spectrometry using the 1450 MicroBeta Plate Counter (Perkin Elmer, Boston, MA). From the dose-response experiments, the IC50 values were determined (see Table 1, CB2 IC50).

human CB1 receptor [1] = target: T2, human CB1 receptor (Homo sapiens, UniProt P21554); assay: PathHunter β-Arrestin functional assay, CB1 receptor, antagonist mode; type: cell-based; parameters: membranes prepared in house; conditions: for inhibition at 4 µM: read-out: relative inhibition in comparison to rimonabant
human CB1 receptor [2] = target: T2, human CB1 receptor; assay: biochemical; type: binding; parameters: membranes prepared in house; conditions: for Selectivity CB1: fold difference in binding between CB1 and CB2, shown in the column of the receptor with higher affinity, 1.00 in both = about same affinity

T2 sequence (P21554 whole entry): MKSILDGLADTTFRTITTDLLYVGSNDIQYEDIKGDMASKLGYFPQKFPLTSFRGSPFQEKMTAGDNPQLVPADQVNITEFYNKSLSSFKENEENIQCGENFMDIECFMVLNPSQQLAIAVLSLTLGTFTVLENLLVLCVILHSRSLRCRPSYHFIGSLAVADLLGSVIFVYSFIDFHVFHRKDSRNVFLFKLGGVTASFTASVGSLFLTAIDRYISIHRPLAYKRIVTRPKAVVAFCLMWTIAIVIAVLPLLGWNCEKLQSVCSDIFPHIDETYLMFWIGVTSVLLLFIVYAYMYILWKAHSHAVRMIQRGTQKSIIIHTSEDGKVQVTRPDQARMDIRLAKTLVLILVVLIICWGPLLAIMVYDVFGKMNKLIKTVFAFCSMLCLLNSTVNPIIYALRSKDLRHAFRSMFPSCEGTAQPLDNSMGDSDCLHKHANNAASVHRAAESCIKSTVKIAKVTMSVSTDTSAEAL
T1 sequence (P34972 whole entry): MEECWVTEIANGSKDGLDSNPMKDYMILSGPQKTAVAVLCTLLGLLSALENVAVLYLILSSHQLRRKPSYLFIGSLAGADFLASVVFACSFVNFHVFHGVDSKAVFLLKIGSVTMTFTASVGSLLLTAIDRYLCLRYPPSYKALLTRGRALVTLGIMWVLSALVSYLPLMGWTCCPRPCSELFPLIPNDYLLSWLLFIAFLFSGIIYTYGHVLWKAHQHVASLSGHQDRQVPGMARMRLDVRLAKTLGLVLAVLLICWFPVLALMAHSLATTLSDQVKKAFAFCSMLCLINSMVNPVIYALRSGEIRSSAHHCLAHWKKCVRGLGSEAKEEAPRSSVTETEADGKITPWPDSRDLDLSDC

Structure (SMILES) | IC50 (human CB2 receptor) [nM] | IC50 (human CB1 receptor [1]) [nM] | inhibition at 4 µM (human CB1 receptor [1]) [%] | Selectivity CB2 (human CB2 receptor) [fold] | IC50 (human CB1 receptor [2]) [nM] | Selectivity CB1 (human CB1 receptor [2]) [fold]
CCCCCc1cc(O)c(C2C=C(C)CCC2)c(O)c1S(=O)(=O)N1CCOCC1 (stereo not shown) [Compound 28c, 5′-methyl-3-(morpholinosulfonyl)-4-pentyl-1′,2′,3′,4′-tetrahydro-[1,1′-biphenyl]-2,6-diol] | 100 to 990 | 775 to 3000 | 11 to 79 | – | – | –
C=C(C)[C@@H]1CCC(C)=C[C@H]1c1c(O)cc(CCCCC)c(S(=O)(=O)NCc2ccccc2)c1O [Compound 25d, N-benzyl-2,6-dihydroxy-5′-methyl-4-pentyl-2′-(prop-1-en-2-yl)-1′,2′,3′,4′-tetrahydro-[1,1′-biphenyl]-3-sulfonamide] | 1000 to 5000 | – | – | 2.00 | 1000 to 5000 | –
C=C(C)[C@@H]1CCC(C)=C[C@H]1c1c(O)cc(CCC)c(S(=O)(=O)NC(C)C)c1O [Compound 68d, 2,6-dihydroxy-N-isopropyl-5′-methyl-2′-(prop-1-en-2-yl)-4-propyl-1′,2′,3′,4′-tetrahydro-[1,1′-biphenyl]-3-sulfonamide] | 1000 to 5000 | – | – | 1.74 | 1000 to 5000 | –
C=C(C)[C@@H]1CCC(C)=C[C@H]1c1c(O)cc(CCCCC)c(S(C)(=O)=O)c1O [Compound 3d, 5′-methyl-3-(methylsulfonyl)-4-pentyl-2′-(prop-1-en-2-yl)-1′,2′,3′,4′-tetrahydro-[1,1′-biphenyl]-2,6-diol] | 1000 to 5000 | – | – | 2.00 | 1000 to 5000 | –
CCCCCc1cc(O)c(C2C=C(C)CCC2)c(O)c1C(=O)NS(=O)(=O)c1cccnc1 (stereo not shown) [Compound 71c, 2,6-dihydroxy-5′-methyl-4-pentyl-N-(pyridin-3-ylsulfonyl)-1′,2′,3′,4′-tetrahydro-[1,1′-biphenyl]-3-carboxamide] | 100 to 990 | 775 to 3000 | 11 to 79 | – | 100 to 990 | 1.14
C=C(C)[C@@H]1CCC(C)=C[C@H]1c1c(O)cc(CCC)c(S(=O)(=O)N(C)C)c1O [Compound 67d, 2,6-dihydroxy-N,N,5′-trimethyl-2′-(prop-1-en-2-yl)-4-propyl-1′,2′,3′,4′-tetrahydro-[1,1′-biphenyl]-3-sulfonamide] | 1000 to 5000 | – | – | 3.08 | 1000 to 5000 | –
CCCCCc1cc(O)c(C2C=C(C)CCC2)c(O)c1S(N)(=O)=O (stereo not shown) [Compound 19c, 2,6-dihydroxy-5′-methyl-4-pentyl-1′,2′,3′,4′-tetrahydro-[1,1′-biphenyl]-3-sulfonamide] | 1000 to 5000 | – | – | 1.00 | 1000 to 5000 | 1.00
C=C(C)[C@@H]1CCC(C)=C[C@H]1c1c(O)cc(CCCCC)c(S(=O)(=O)OCC(F)(F)F)c1O [Compound 64d, 2,2,2-trifluoroethyl-2,6-dihydroxy-5′-methyl-4-pentyl-2′-(prop-1-en-2-yl)-1′,2′,3′,4′-tetrahydro-[1,1′-biphenyl]-3-sulfonate] | 100 to 990 | – | – | – | 100 to 990 | 2.00
CCCCCc1cc(O)c(C2C=C(C)CCC2)c(O)c1S(=O)(=O)Nc1ccccc1 (stereo not shown) [Compound 24c, 2,6-dihydroxy-5′-methyl-4-pentyl-N-phenyl-1′,2′,3′,4′-tetrahydro-[1,1′-biphenyl]-3-sulfonamide] | 100 to 990 | – | – | 3.60 | 1000 to 5000 | –
C=C(C)[C@@H]1CCC(C)=C[C@H]1c1c(O)cc(CCCCC)c(S(=O)(=O)N2CCOCC2)c1O [Compound 28d, 5′-Methyl-3-(Morpholinosulfonyl)-4-Pentyl-2′-(Prop-1-En-2-Yl)-1′,2′,3′,4′-Tetrahydro-[1,1′-Biphenyl]-2,6-Diol] | < 100 | – | – | 8.20 | 100 to 990 | –
C=C(C)[C@@H]1CCC(C)=C[C@H]1c1c(O)cc(CCCCC)c(S(=O)(=O)N(CCO)CCBr)c1O [Compound 63d, N-(2-bromoethyl)-2,6-dihydroxy-N-(2-hydroxyethyl)-5′-methyl-4-pentyl-2′-(prop-1-en-2-yl)-1′,2′,3′,4′-tetrahydro-[1,1′-biphenyl]-3-sulfonamide] | 1000 to 5000 | – | – | 1.00 | 1000 to 5000 | 1.00
C=C(C)[C@@H]1CCC(C)=C[C@H]1c1c(O)cc(CCCCC)c(S(=O)(=O)NC2CC2)c1O [Compound 22d, N-Cyclopropyl-2,6-Dihydroxy-5′-Methyl-4-Pentyl-2′-(Prop-1-En-2-Yl)-1′,2′,3′,4′-Tetrahydro-[1,1′-Biphenyl]-3-Sulfonamide] | 1000 to 5000 | 775 to 3000 | 11 to 79 | 1.52 | 1000 to 5000 | –
C=C(C)[C@@H]1CCC(C)=C[C@H]1c1c(O)cc(CCCCC)c(S(=O)(=O)Nc2ccccc2)c1O [Compound 24d, 2,6-dihydroxy-5′-methyl-4-pentyl-N-phenyl-2′-(prop-1-en-2-yl)-1′,2′,3′,4′-tetrahydro-[1,1′-biphenyl]-3-sulfonamide] | 1000 to 5000 | – | – | 1.67 | 1000 to 5000 | –
C=C(C)[C@@H]1CCC(C)=C[C@H]1c1c(O)cc(CCCCC)c(S(=O)(=O)N(CC)CC)c1O [Compound 62d, N,N-Diethyl-2,6-Dihydroxy-5′-Methyl-4-Pentyl-2′-(Prop-1-En-2-Yl)-1′,2′,3′,4′-Tetrahydro-[1,1′-Biphenyl]-3-Sulfonamide] | 100 to 990 | 775 to 3000 | 11 to 79 | 6.29 | 100 to 990 | –
CCCCCc1cc(O)c(C2C=C(C)CCC2)c(O)c1S(=O)(=O)NCc1ccccc1 (stereo not shown) [Compound 25c, N-benzyl-2,6-dihydroxy-5′-methyl-4-pentyl-1′,2′,3′,4′-tetrahydro-[1,1′-biphenyl]-3-sulfonamide] | 100 to 990 | – | – | 1.50 | 100 to 990 | –
C=C(C)[C@@H]1CCC(C)=C[C@H]1c1c(O)cc(CCCCC)c(S(=O)(=O)NC(C)C)c1O (stereo in doubt) [Compound 23d, 2,6-dihydroxy-N-isopropyl-5′-methyl-4-pentyl-2′-(prop-1-en-2-yl)-1′,2′,3′,4′-tetrahydro-[1,1′-biphenyl]-3-sulfonamide] | 100 to 990 | – | – | 2.56 | 1000 to 5000 | –
CCCCCc1cc(O)c(C2C=C(C)CCC2)c(O)c1S(=O)(=O)NC1CC1 (stereo not shown) [Compound 22c, N-cyclopropyl-2,6-dihydroxy-5′-methyl-4-pentyl-1′,2′,3′,4′-tetrahydro-[1,1′-biphenyl]-3-sulfonamide] | 100 to 990 | 775 to 3000 | 11 to 79 | 11.59 | 1000 to 5000 | –
C=C(C)[C@@H]1CCC(C)=C[C@H]1c1c(O)cc(CCCCC)c(S(=O)(=O)N(C)C)c1O (stereo in doubt) [Compound 21d, 2,6-dihydroxy-N,N,5′-trimethyl-4-pentyl-2′-(prop-1-en-2-yl)-1′,2′,3′,4′-tetrahydro-[1,1′-biphenyl]-3-sulfonamide] | 100 to 990 | – | – | 1.41 | 100 to 990 | –
